The source of these data is ChEMBL document CHEMBL1201862, “PubChem BioAssay data set” (2004).

Some test systems named below: TK-10; HOP-92; SK-OV-3; SK-MEL-5; OVCAR-4; SF-268; MDA-MB-435; SW-620; SK-MEL-2; PC-3; SR; EKVX; SNB-75; OVCAR-3; NCI-H226; T47D; HL-60; MOLT-4; NCI-H460.
Common to all, as to assay: NCI-60 cell line screen, 48 h

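96-well plates; 48 h exposure; 5 concentrations. Endpoints by linear interpolation between flanking doses. Not reached: highest tested concentration assigned. Abbreviation: GI50, concentration required for 50% inhibition of growth.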 The source made the active and inactive calls. No stated cut-off is given here; in the data, active = GI50 up to about 1.1 µM and inactive = higher. A value given as a limit tells only on which side of the number the result lay.

For `O=c1[nH]c2nc3ccccc3c(=O)n2/c1=C/c1cccs1`, the GI50 in the assay on TK-10 is > 100 µM (inactive); with HOP-92, 87.7 µM (inactive); in the assay with SK-OV-3, > 100 µM (inactive); with SK-MEL-5, > 100 µM (inactive); in the assay on OVCAR-4 it was > 100 µM (inactive); with SF-268, > 100 µM (inactive). The GI50 with MDA-MB-435, in the assay with SW-620, with SK-MEL-2, with PC-3, in the assay on SR and with EKVX was > 100 µM (inactive) in each case. For the same compound, the GI50 is 20.5 µM (inactive) in the assay on SNB-75; > 100 µM (inactive) in the assay on OVCAR-3; > 100 µM (inactive) in the assay on NCI-H226; 69.7 µM (inactive) with T47D; > 100 µM (inactive) in the assay with HL-60; > 100 µM (inactive) in the assay on MOLT-4.
On to `CC(=O)/C(=C\I)c1ccccc1`, for which the GI50 in the assay on TK-10 is 13.9 µM (inactive); in the assay on HOP-92, 2.45 µM (inactive); in the assay on SK-OV-3, 13.6 µM (inactive); in the assay with SF-268 it was 7.91 µM (inactive); in the assay with MDA-MB-435 it was 3.86 µM (inactive); with SW-620, 1.3 µM (inactive). In addition, the GI50 with SK-MEL-2 was 2.6 µM (inactive); in the assay with PC-3 it was 2.51 µM (inactive); with SR, 1.49 µM (inactive); with EKVX, 18.6 µM (inactive); with SNB-75, 3.94 µM (inactive); in the assay on OVCAR-3, 1.7 µM (inactive). Also, the GI50 is 21.2 µM (inactive) with NCI-H226; 11.2 µM (inactive) in the assay on NCI-H460; 1.69 µM (inactive) with T47D; 1.08 µM (active) in the assay with HL-60; 1.89 µM (inactive) in the assay on MOLT-4.
For `CCNC(=S)Nc1c(C#N)c2n(c1C(=O)OCC)CCCCC2`, the GI50 in the assay on TK-10 was > 100 µM (inactive); with HOP-92, 42.3 µM (inactive); in the assay with SK-OV-3 it was > 100 µM (inactive); in the assay with SK-MEL-5 it was > 100 µM (inactive); in the assay with OVCAR-4 it was > 100 µM (inactive); in the assay on SF-268, 62.7 µM (inactive). In addition, the GI50 in the assay on MDA-MB-435, in the assay with SW-620, with SK-MEL-2, with PC-3, in the assay on SR and in the assay with EKVX was > 100 µM (inactive) each time. The GI50 with SNB-75, in the assay on NCI-H226, with NCI-H460, with T47D, with HL-60 and in the assay on MOLT-4 was > 100 µM (inactive) each time.
Take `O=S(=O)(O)c1ccc(-c2nnc(-c3ccccn3)nc2-c2ccc(S(=O)(=O)O)o2)o1`: the GI50 in the assay with HOP-92, in the assay on SK-OV-3, in the assay on SK-MEL-5, in the assay on OVCAR-4, in the assay on SF-268 and in the assay with MDA-MB-435 was > 100 µM (inactive) each time. Besides, the GI50 in the assay with SW-620, with SK-MEL-2, with PC-3, with SR, with EKVX and with SNB-75 was > 100 µM (inactive) in each case. The GI50 with OVCAR-3 is > 100 µM (inactive); with NCI-H226, > 100 µM (inactive); with NCI-H460, > 100 µM (inactive); in the assay with T47D it was > 100 µM (inactive); in the assay on HL-60, 0.329 µM (active); with MOLT-4, > 100 µM (inactive).
For the compound `Oc1nnc(-c2ccc(F)cc2)cc1-c1ccccc1`, the GI50 in the assay on TK-10 was 71.4 µM (inactive); in the assay with HOP-92, > 100 µM (inactive); in the assay on SK-OV-3 it was 42.6 µM (inactive); with SK-MEL-5, > 100 µM (inactive); in the assay with OVCAR-4, 38 µM (inactive); in the assay with SF-268 it was 46.1 µM (inactive). Besides, the GI50 was > 100 µM (inactive) with MDA-MB-435; > 100 µM (inactive) in the assay on SW-620; 80.7 µM (inactive) with SK-MEL-2; 91.4 µM (inactive) with PC-3; > 100 µM (inactive) in the assay on SR; 42.9 µM (inactive) in the assay on EKVX. Also, the GI50 in the assay with OVCAR-3 was 23.4 µM (inactive); in the assay on NCI-H226, > 100 µM (inactive); with NCI-H460 it was 89.7 µM (inactive); with T47D, 44.2 µM (inactive); in the assay on HL-60 it was > 100 µM (inactive); in the assay with MOLT-4 it was > 100 µM (inactive).
As to `COC1/C=C\C=C(/C)C(=O)NC2=CC(=O)C(O)=C(CC(C)CC(OC)C(O)C(C)/C=C(\C)C1OC(N)=O)C2=O` (stereo unspecified), the GI50 in the assay with TK-10 was 0.438 µM (active); in the assay with HOP-92, 0.382 µM (active); with SK-OV-3, 3.59 µM (inactive); in the assay with SK-MEL-5 it was 0.859 µM (active); in the assay on OVCAR-4, 10.3 µM (inactive); in the assay with SF-268, 5.7 µM (inactive). Besides, the GI50 with MDA-MB-435 was 0.0537 µM (active); in the assay with SW-620, 0.0158 µM (active); in the assay with SK-MEL-2, 0.893 µM (active); in the assay on PC-3, 0.253 µM (active); with SR it was 0.0406 µM (active); in the assay with EKVX, 10.8 µM (inactive). In addition, the GI50 in the assay on OVCAR-3 is 0.325 µM (active); with NCI-H226, > 100 µM (inactive); in the assay with NCI-H460 it was 1.5 µM (inactive); in the assay on T47D, 7.05 µM (inactive); with HL-60 it was 0.169 µM (active); with MOLT-4 it was 0.0959 µM (active).
Consider `Clc1ccc(Cc2nc3cc4ccccc4cc3[nH]2)cc1Cl`, for which the GI50 in the assay with TK-10 is 19.4 µM (inactive); with HOP-92, 11.7 µM (inactive); in the assay with SK-MEL-5, 3.93 µM (inactive); in the assay with OVCAR-4, 13 µM (inactive); with SF-268, 15.9 µM (inactive); in the assay on MDA-MB-435, 15 µM (inactive). Also, the GI50 in the assay on SW-620 is 17.4 µM (inactive); in the assay with SK-MEL-2, 17.1 µM (inactive); in the assay on PC-3 it was 13 µM (inactive); with SR, 7.6 µM (inactive); in the assay on EKVX, 29.2 µM (inactive); in the assay on SNB-75, 17.3 µM (inactive). Further, the GI50 in the assay on OVCAR-3 is 22.8 µM (inactive); in the assay with NCI-H226, 25.2 µM (inactive); with NCI-H460, 6.97 µM (inactive); in the assay on T47D it was 12.2 µM (inactive); in the assay with HL-60 it was 16.3 µM (inactive); in the assay with MOLT-4, 2.37 µM (inactive).
Take `O=C1CSC(=O)/C1=C\NNc1nc2ccccc2o1`: the GI50 with TK-10 was 53.3 µM (inactive); in the assay with HOP-92, 23.3 µM (inactive); in the assay with SK-OV-3, 32.3 µM (inactive); in the assay with SK-MEL-5, 14.4 µM (inactive); in the assay on OVCAR-4, 38.3 µM (inactive); in the assay with SF-268, 30.5 µM (inactive). Besides, the GI50 in the assay on MDA-MB-435 is 65.9 µM (inactive); in the assay on SW-620 it was 29.8 µM (inactive); with SK-MEL-2, 37.2 µM (inactive); with PC-3, 21.8 µM (inactive); with SR, 24.5 µM (inactive); in the assay on EKVX, 34.5 µM (inactive). The GI50 with OVCAR-3 is 17.4 µM (inactive); in the assay with NCI-H226, 36 µM (inactive); with NCI-H460, 23.8 µM (inactive); in the assay with T47D, 6.34 µM (inactive); in the assay on HL-60 it was 0.586 µM (active); with MOLT-4, 21 µM (inactive).
Regarding `COc1ccc(-c2c(N)n(-c3cc(OC)cc(OC)c3)c(=O)c3cc([N+](=O)[O-])ccc23)cc1`, the GI50 with TK-10 is > 26 µM (inactive); with HOP-92 it was 3.21 µM (inactive); with SK-OV-3 it was > 100 µM (inactive); in the assay on SK-MEL-5 it was 18 µM (inactive); in the assay with OVCAR-4 it was 18.2 µM (inactive); with SF-268 it was 29.4 µM (inactive). In addition, the GI50 was 20.4 µM (inactive) in the assay with MDA-MB-435; > 87.7 µM (inactive) in the assay with SW-620; > 100 µM (inactive) in the assay on SK-MEL-2; 31.3 µM (inactive) in the assay with PC-3; 27.4 µM (inactive) in the assay on SR; 38.3 µM (inactive) with EKVX. For the same compound, the GI50 was 24.4 µM (inactive) in the assay on OVCAR-3; > 36.1 µM (inactive) in the assay with NCI-H226; > 100 µM (inactive) in the assay on NCI-H460; 7.4 µM (inactive) with T47D; 2.47 µM (inactive) in the assay on HL-60; > 60.7 µM (inactive) with MOLT-4.
For `O=c1c2ccc(Cl)cc2oc2c(CNc3ccc(S(=O)(=O)Nc4ncccn4)cc3)cccc12`, the GI50 in the assay on TK-10, with HOP-92, in the assay on SK-OV-3, with SK-MEL-5, in the assay with OVCAR-4 and in the assay with MDA-MB-435 was > 100 µM (inactive) throughout. The GI50 in the assay on SW-620, in the assay with SK-MEL-2, in the assay with PC-3, in the assay on SR, in the assay on EKVX and with SNB-75 was > 100 µM (inactive) in each case. The GI50 in the assay with OVCAR-3, in the assay on NCI-H226, in the assay on T47D, in the assay on HL-60 and in the assay with MOLT-4 was > 100 µM (inactive) throughout.
Take `COc1ccc(C2=C(N)c3c(OC)cccc3C2=O)cc1`: the GI50 in the assay on TK-10 is > 10 µM (inactive); with HOP-92, > 10 µM (inactive); with SK-OV-3, > 100 µM (inactive); in the assay with OVCAR-4 it was > 100 µM (inactive); with SF-268 it was 37.8 µM (inactive); in the assay with MDA-MB-435 it was > 100 µM (inactive). The GI50 in the assay with SW-620, with SK-MEL-2, with PC-3, in the assay on SR, with EKVX and with SNB-75 was > 100 µM (inactive) each time. Moreover, the GI50 in the assay on OVCAR-3, with NCI-H226, in the assay on NCI-H460, in the assay on T47D, in the assay with HL-60 and with MOLT-4 was > 100 µM (inactive) throughout.
